The term EC50 denotes the concentration needed to bring the measured effect to its halfway point.

The test relates to HCVpp (HCV E1/E2, isolate Con1) entry into Hep3B2.1-7 cells. The experiment in a line: microbe, parasite or virus in culture. It is filed as cell-based. The note with it: Hepatitis C virus, 72 h, read-out: EC50 (nM) (Ex. 58).
In the case of `CN1CCC[C@H](NC(=O)c2ccc3[nH]c4c(c3c2)C(C)(C)CC(C)(C)C4=O)C1` [Compound 3006], the EC50 is 102 nM.
Then `CC1(C)CC(C)(C)c2c([nH]c3ccc(C(=O)NC4CCN(C(=O)c5ccccn5)C4)cc23)C1=O` (stereo not drawn) [Compound 2026], with 36 nM.
With `CC1CC(C)(C)c2c([nH]c3ccc(C(=O)NC4CCS(=O)(=O)C4)cc23)C1=O` (stereo not drawn) [Compound 5014] the figure was 187 nM; with `CC1(C)CC(C)(C)c2c([nH]c3ccc(C(=O)NC4CCN(S(C)(=O)=O)C4)cc23)C1=O` (stereo not drawn) [Compound 2058], 39 nM; with `CC1(C)CC(C)(C)c2c([nH]c3ccc(C(=O)N[C@H]4CC[C@H](NCC5CC5)CC4)cc23)C1=O` [Compound 7019], 82 nM.
With `CC1(C)CC2(CCC2)c2c([nH]c3ccc(C(=O)NC4CCN(C(=O)c5nc[nH]n5)C4)cc23)C1=O` (stereo not drawn) [Compound 6016] the figure was 3.4 nM; with `Cn1cncc1CNC(=O)CNC(=O)c1ccc2[nH]c3c(c2c1)C(C)(C)CC(C)(C)C3=O` [Compound 7010], 126 nM.
As to `CC1(C)CC(C)(C)c2c([nH]c3ccc(C(=O)Nc4cnccn4)cc23)C1=O` [Compound 7050], the EC50 was determined as 88 nM.
For `COC(=O)c1ccc2[nH]c3c(c2c1)C(C)(C)CC(C)(C)C3=O` [Compound 1107], the half-maximal effective concentration (EC50) was found to be 195 nM.
Then `COCC1(C)CC(C)(C)c2c([nH]c3ccc(C(=O)NC4CCN(C(=O)c5n[nH]c(N)n5)C4)cc23)C1=O` (stereo not drawn) [Compound 5017], with 9.3 nM; and `CC1(C)CC(C)(C)c2c([nH]c3ccc(C(=O)NC4CCN(CCF)C4)cc23)C1=O` (stereo not drawn) [Compound 2003], with 117 nM; and `O=C(NC1CCS(=O)(=O)C1)c1ccc2[nH]c3c(c2c1)C1(CCCC3=O)CC1` (stereo not drawn) [Compound 1104], with 122 nM.
With `CC1(C)CC(C)(C)c2c([nH]c3ccc(-c4nnc(NC5CCS(=O)(=O)C5)o4)cc23)C1=O` (stereo not drawn) [Compound 1103] the figure was 34 nM; with `CC1(C)CC(C)(C)c2c([nH]c3ccc(C(=O)NC4CCS(=O)(=O)CC4)cc23)C1=O` [Compound 7008], 201 nM.
As to `CC1(C)CC2(CCOCC2)C(=O)c2[nH]c3ccc(C(=O)NC4CCS(=O)(=O)C4)cc3c21` (stereo not drawn) [Compound 5003], the EC50 turned out to be 385 nM.
For the compound `CC1(C)CC2(CC2)C(=O)c2[nH]c3ccc(C(=O)NC4CCN(C(=O)c5nc[nH]n5)C4)cc3c21` (stereo not drawn) [Compound 5008], the EC50 is 22 nM.
Then `CC1(C)CC(C)(C)c2c([nH]c3cnc(C(=O)NCc4ccccn4)cc23)C1=O` [Compound 9004], with 85 nM; and `CC1(C)CC2(CC2)c2c([nH]c3ccc(C(=O)NCCCn4cncn4)cc23)C1=O` [Compound 6001], with 66 nM.

The values above are taken from US9340539B2, “Hepatitis C inhibitor compounds” (priority 2011, dated 2016).
